For series [1], the system named is lamin A. Briefly: Western blot of lamin A protein in HGPS fibroblasts. The series is classed as cell-based, human. Conditions: 48 h treatment with MG132 (10 μM). The method, then: Total fibroblast proteins were extracted in 200 μL of NP40 Cell Lysis buffer (Invitrogen, Carlsbad, Calif.) containing Protease and Phosphatase Inhibitor Cocktail (Thermo Scientific). Alternatively, cells were lysed with urea (8 M urea, 5 mM dithiothreitol, 150 mM NaCl, 50 mM Tris-Cl pH 7.5, protease and phosphatase Inhibitor Cocktail (Thermo Scientific)). Cells were sonicated twice (30 sec each), incubated at 4° C. for 30 minutes and then centrifuged at 10,000 g for 10 minutes. Protein concentration was evaluated with the bicinchoninic acid technique (Pierce BCA Protein Assay Kit), absorbance at 562 nm is measured using nanodrop 1000 (Thermo Fisher Scientific Inc.) Equal amounts of proteins (40 μg) were loaded onto 10% Tis-Glycine gel (Criterion™ XT precast gel) using XT Tricine running Buffer (Biorad, USA). After electrophoresis, gels were electro transferred onto nitrocellulose membranes or Immobilon-FL polyvinylidene fluoride membranes (Millipore), blocked in Odyssey Blocking Buffer diluted 1:1 in PBS for 1 hour at room temperature, and incubated overnight at 4° C. or 2 hours at room temperature with various primary antibodies. […]
In general terms: A western blot detects proteins with antibodies after separation by electrophoresis.

For series [2], the system named is wild-type first instar larvae. Kind of series: Toxicity of MG132 fed to Drosophila larvae. The series is classed as in vivo. The note with it: 600 μM MG132 (in 0.2% DMSO) in the fly medium, 25° C. Here is the method:
(A) The toxicity of MG132 fed to larvae was determined by transferring 80 wild-type first instar larvae into vials containing 5 ml of instant Drosophila medium reconstituted either with increasing concentrations of drug in DMSO, or DMSO alone.
Drug supplemented food was prepared as follows. Instant Drosophila medium (Carolina Biological Supply Company) was reconstituted in each vial with a solution of 1% yeast in water, supplemented with either increasing concentrations of drug solubilized in DMSO (dimethyl sulfoxide), or DMSO alone. MG132 was purchased from Santa Cruz Biotechnology (SC-201270). Each vial contained 5 ml or 2.5 ml of reconstituted medium, to raise larvae or adults, respectively. Individuals were fed with the drug from larval stages. 70 to 80 first instar larvae were transferred per vial and developed in the same vial up to adulthood; adults were transferred in a new vial with the same concentration of drug. To determine drug toxicity, 80 first instar larvae were transferred into vials containing drug- or DMSO alone-supplemented medium. Individuals reaching adulthood were scored. Abnormal wing posture was quantified by collecting adult males at birth, pooling five males per vial and scoring abnormal wing position each day by direct observation of the flies through the vials, without anesthesia.

The subject of series [3] is progerin. Kind of series: Immunofluorescence of subcellular progerin localization. Conditions: HGPS cell lines, 48 h MG132 exposure. Type of series: cell-based, human. The method, then:
Cells collected by centrifugation were spread onto polylysine-coated slides by centrifugation (300 rpm for 5 minutes) with a cytospin (Shandon). Cells were then fixed at room temperature for 10 minutes in 2% (w/v) paraformaldehyde in PBS pH 7.2. Slides were stored at −80° C. prior to use. Cells were permeabilized using 100 μL permeabilization buffer (0.5% Triton X-100, 50 mM NaCl, 300 mM sucrose, 20 mM HEPES pH 7.5, 3 mM MgCl2) for 3 minutes at RT. Non-specific antibody binding was blocked with 3% Bovine Serum Albumin in PBS (w/v) (PBS-BSA) for 30 minutes. The permeabilized cells were incubated with the primary antibodies for 3 h at 37° C. After washing, the cells were then incubated with secondary antibodies (A11001, A11058, Life Technologies; 1/400) for 20 minutes at 37° C. Nuclei were stained with DAPI (50 ng/ml) diluted in Vectashield (Abcys) for 10 minutes at RT. Samples were fixed in 4% paraformaldehyde for 5 min. […]
It has been reported that the MG132 can lead to PML-NBs component proteins being translocated into the nucleolus. […] Therefore, nucleolus might function as an alternative sequestration site that immobilizes and temporarily stores accumulated progerin when proteasome-dependent degradation is blocked, as the inventors detected PML and LC3B cytosolic colocalization upon 24 h MG132 treatment (data not shown). […]

Series [4] concerns Act88F-PABPN1-17ala-expressing flies. Briefly: Wing posture defects in Drosophila OPMD model. Type of series: in vivo. The note with it: oral in food, from larval stages, Day 3 to Day 11 of adulthood, vs DMSO alone.
Procedure: Drug supplemented food was prepared as follows. Instant Drosophila medium (Carolina Biological Supply Company) was reconstituted in each vial with a solution of 1% yeast in water, supplemented with either increasing concentrations of drug solubilized in DMSO (dimethyl sulfoxide), or DMSO alone. MG132 was purchased from Santa Cruz Biotechnology (SC-201270). Each vial contained 5 ml or 2.5 ml of reconstituted medium, to raise larvae or adults, respectively. Individuals were fed with the drug from larval stages. 70 to 80 first instar larvae were transferred per vial and developed in the same vial up to adulthood; adults were transferred in a new vial with the same concentration of drug. […] Abnormal wing posture was quantified by collecting adult males at birth, pooling five males per vial and scoring abnormal wing position each day by direct observation of the flies through the vials, without anesthesia.
The inventors used the Drosophila model in which PABPN1-17ala is expressed constitutively in adult indirect flight muscles from the Act88F-PABPN1-17ala transgene (90), to assay the effect of MG132 in vivo. […] Wing posture defects were recorded from Day 3 to Day 11 of adulthood. The effect of MG132 was quantified by recording the number of Act88F-PABPN1-17ala-expressing flies with abnormal wing posture.
Series [5] deals with SRSF-1. Briefly: Western blot of SRSF-1 in HGPS fibroblasts. The series is classed as cell-based, human. Conditions: 48 h treatment of HGPS fibroblasts with MG132 (10 μM). Here is the method: Total fibroblast proteins were extracted in 200 μL of NP40 Cell Lysis buffer (Invitrogen, Carlsbad, Calif.) containing Protease and Phosphatase Inhibitor Cocktail (Thermo Scientific). Alternatively, cells were lysed with urea (8 M urea, 5 mM dithiothreitol, 150 mM NaCl, 50 mM Tris-Cl pH 7.5, protease and phosphatase Inhibitor Cocktail (Thermo Scientific)). Cells were sonicated twice (30 sec each), incubated at 4° C. for 30 minutes and then centrifuged at 10,000 g for 10 minutes. Protein concentration was evaluated with the bicinchoninic acid technique (Pierce BCA Protein Assay Kit), absorbance at 562 nm is measured using nanodrop 1000 (Thermo Fisher Scientific Inc.) Equal amounts of proteins (40 μg) were loaded onto 10% Tis-Glycine gel (Criterion™ XT precast gel) using XT Tricine running Buffer (Biorad, USA). After electrophoresis, gels were electro transferred onto nitrocellulose membranes or Immobilon-FL polyvinylidene fluoride membranes (Millipore), blocked in Odyssey Blocking Buffer diluted 1:1 in PBS for 1 hour at room temperature, and incubated overnight at 4° C. or 2 hours at room temperature with various primary antibodies. Blots were washed with TBS-T buffer [20 mM tris (pH 7.4), 150 mM NaCl, and 0.05% Tween 20] and incubated with 1:10,000 IR-Dye 800-conjugated secondary donkey anti-goat or IR-Dye 700-conjugated secondary anti-mouse antibodies (LI-COR Biosciences) in Odyssey blocking buffer (LI-COR Biosciences). For IR-Dye 800 and IR-Dye 700 detection, an Odyssey Infrared Imaging System (LI-COR Biosciences) was used. GAPDH, α-tubulin or β-actin were used as a total cellular protein loading control.

Peptide text beside a SMILES is read from it. * marks the point of attachment. Cbz = O=C(OCc1ccccc1)*

Take `CC(C)C[C@@H](C=O)NC(=O)[C@H](CC(C)C)NC(=O)[C@H](CC(C)C)NC(=O)OCc1ccccc1` [MG132, Z-Leu-Leu-Leu-al] (Cbz-Leu-Leu-Leu-aldehyde): in series [1], the “lamin A protein levels” value is recorded as “increased”. The “viability (flies reaching adulthood)” value in series [2] was “not detrimental for viability”. In addition, in series [3], the subcellular progerin localization entry is given as “progerin accumulates into autophagic vacuoles”. Moreover, the “number of flies with abnormal wing posture” value in series [4] is reported as “significant decrease in the number of flies with abnormal wing posture”. In addition, the SRSF-1 levels result in series [5] is recorded as “significant decrease of SRSF-1 levels”.

Values taken from patent US20170368134A1, “PROTEASOME INHIBITORS FOR TREATING A DISORDER RELATED TO AN ACCUMULATION OF NON-DEGRADED ABNORMAL PROTEIN OR A CANCER” (UNIVERSITÉ D'AIX-MARSEILLE, priority 2015, published 2017).
